Patent US20240415753A1, “DEODORANT COMPOSITIONS COMPRISING CARBOXYLIC ACIDS” (The Procter & Gamble Company, priority 2023, published 2024)

Columns and labels:
[1] = Surface tension of carboxylic acid at 2 wt % in water (Wilhelmy plate); assay type: physicochemical; settings: 2 wt % solution of the carboxylic acid in water; average of 3 samples
Procedure: Surface tension was measured using surface tension measurement, described herein. […] Surface tension of a sample is calculated as the average of the last 5 measured values. […] The average of the last 5 values is used to calculate surface tension of a sample. Surface Tension is measured by ASTM […]-20 Method C-Surface Tension by […] plate. For accurate measurement, the Surface Tension measurement should be allowed to equilibrate over the course of at least 1 minute, or at least 2 minutes, or longer depending on the sample. Properly equilibrated surface tension measurement is evaluated by not seeing a change in the surface tension measurement across multiple data points at the end of the measurement time period. The sample is run for a longer period of time if the surface tension measurement is continuing to change across multiple data points at the end of the measurement time period. […] The average of the last 5 values collected is used to calculate surface tension of a sample.

[2] = tested on: mock community of five underarm species (3 Staphylococcus and 2 Corynebacterium); experiment: MIC of various carboxylic acids (Optical Density MIC 95); assay type: cell-based; settings: pH 5, Tryptic Soy Broth, initial concentration 1000 ppm, ~24 hours at 37° C., OD 600 nm
Text: The following MIC (Minimum Inhibitory Concentration) was done on various carboxylic acids. The MIC is the lowest concentration of active compound at which no growth of the microorganism is observed macroscopically. […] Tryptic Soy Broth is used in the measurements below as a standard diluent for testing MIC. Initial concentration is the highest concentration tested in this experiment. […] The results shown in Table 7 below indicate that carboxylic acids have the ability to inhibit bacteria growth. […] The MIC or minimum inhibitory concentration test determines antimicrobial activity of a material against a specific bacteria. The most commonly employed methods are the tube dilution method and agar dilution method. Test products that are not clear or precipitate the growth media are tested by agar dilution method which is similar to the tube dilution method except dilutions are plated on agar. The tube dilution test is the standard method for determining levels of microbial resistance to an antimicrobial agent. Serial dilutions of the test agent are made in a liquid microbial growth medium which is inoculated with a standardized number of organisms and incubated for a prescribed time. The lowest concentration (highest dilution) of test agent preventing appearance of turbidity (growth) is considered to be the minimal/minimum inhibitory concentration (MIC). At this dilution the test agent is bacteriostatic. […] This measurement is referred to as optical density.

[3] = Surface tension of solvents at 50 wt % in water (Wilhelmy plate); assay type: physicochemical; settings: solvent at 50 wt % in water; average of 3 samples
Text: In addition, carboxylic acids may be used in deodorant compositions that are desired to be clear. For the composition to appear clear, the refractive index of the polar and nonpolar phases may not vary too much. For example, for a clear appearance of a polar in nonpolar emulsion, a significant amount of material with high refractive index, water soluble solvents or emollients (for example glycols, polyethers, diols, glycerin, or mixtures thereof), can be added to the polar phase to match the refractive index of water (1.333) to silicone (1.40). […] Surface tension is measured for mixtures of solvents at 50 wt % in water. Surface tension was measured using the surface tension measurement, as described in the Test Method section herein. Measurement time period was 1 minute with 30 values measured over the measurement time period. Surface tension of a sample is calculated as the average of the last 5 measured values. Each reported value is an average of 3 samples measured.
Surface Tension is measured by ASTM D1331-20 Method C-Surface Tension by Willhelmy plate. […] Properly equilibrated surface tension measurement is evaluated by not seeing a change in the surface tension measurement across multiple data points at the end of the measurement time period. […] A minimum of 30 measured values are collected during the measurement time period. […]

Compound	Surface Tension when measured at 2 wt % in Water [1] [mN/m]	MIC [2] [µg/mL]	Surface Tension when measured at 50 wt % in Water [3] [mN/m]
O=C1O[C@H]([C@@H](O)CO)C(O)=C1O [Ascorbic Acid]	72.4		
O=C(O)CC(O)(CC(=O)O)C(=O)O [Citric Acid]	71.3		
O=C(O)/C=C/C(=O)O [Fumaric Acid]		250	
OCC(O)CO [Glycerin]			68.6
O=C(O)CO [Glycolic Acid]	71.1		
CC(O)C(=O)O (centres unmarked) [Lactic Acid]	63.7	1000	
O=C(O)/C=C\C(=O)O [Maleic Acid]		1000	
O=C(O)CC(O)C(=O)O (centres unmarked) [Malic Acid]	71.8	500	
O=C(O)C(O)c1ccccc1 (centres unmarked) [Mandelic Acid]	63.7	1000	
CC(O)CO (centres unmarked) [Propylene Glycol (PG), Propylene Glycol]			44.6
O=C(O)c1ccccc1O [Salicylic Acid]		125	
O=C(O)CCC(=O)O [Succinic Acid]	69.8	1000	
O=C(O)C(O)C(O)C(=O)O (centres unmarked) [Tartaric Acid]		250	
